According to US20200030278A1, “PHARMACEUTICAL COMPOSITIONS OF METAP-2 INHIBITORS” (Zafgen, Inc., priority 2017, published 2020):

Columns and labels:
[1] = Major metabolites in rats dosed SC; format: in vivo
[2] = Pharmacokinetics after intravenous infusion in humans; format: in vivo; conditions: Human, 30-minute IV Infusion, 2.0 mg (0.9 mg/m^2)
[3] = dog, in vivo, sc
Protocol: Male and female beagle dogs of 9 to 11 months of age for PK characterization were individually housed at the testing facility Approximately 325 g of pelleted food was provided daily. […] Animals were observed twice daily for signs of ill health, morbidity, mortality, injury, and viability, and detailed clinical observations were conducted daily (including urine/fecal examination and hands-on examination). Food was weighed daily, and body weights were recorded at least weekly.
Samples were collected in tubes containing lithium heparin and processed for plasma by centrifugation (10 minutes at 3000 rpm). Supernatant was removed and stored frozen (−70° C.) until processed (BASi, West Lafayette, Ind.). Plasma drug concentration data were used to calculate PK parameters for individual concentration data using noncompartmental PK methods in Watson™ version 7.3.0.01 (Thermo Fisher Scientific, Inc., Waltham, Mass.).

[4] = Red blood cell partitioning; format: in vitro ADME; conditions: Compound A compared with beloranib
[5] = test system: plasma proteins; test: Plasma protein binding, summary over species; format: in vitro ADME; conditions: species not specified

| Compound | pathway giving the major metabolites observed [1] | kel [2] [h⁻¹] | AUC(0-inf) ([2]; in vivo) [ng·h/mL] | clearance ([2]; in vivo) [mL/min/kg] | half-life ([2]; in vivo) [h] | Vd ([2]; in vivo, read-out: Vdss) [L/kg] | plasma concentration after the 4-hour timepoint [3] | red blood cell partitioning [4] | fraction bound to plasma proteins [5] |
| --- | --- | --- | --- | --- | --- | --- | --- | --- | --- |
| CO[C@@H]1[C@H](OC(=O)/C=C/c2ccc(OCCN(C)C)cc2)CC[C@]2(CO2)[C@H]1[C@@]1(C)O[C@@H]1CC=C(C)C [beloranib, reference compound] | GSH conjugation and subsequent metabolic degradation of the GSH conjugates | 0.120 ± 0.070 | 5.82 ± 2.46 | 64.5 | 7.06 ± 2.66 | 25.4 ± 19.2 | – | – | – |
| CO[C@@H]1[C@H](OC(=O)N2CC(CCN3CCOCC3)C2)CC[C@]2(CO2)[C@H]1[C@@]1(C)O[C@@H]1CC=C(C)C [Compound A] | – | – | – | – | – | – | undetectable | similar | 0.3 to 0.7 |
